The numbers were not newly measured in US20190032079A1, “SYSTEMIC SYNTHESIS AND REGULATION OF L-DOPA” (MYODOPA LIMITED, priority 2015, published 2019), which cites them from elsewhere.

pKd: −log10 of the molar value. Read-outs that look alike come from different tables or passages of the source.

The conditions of data set [1]: intra-intestinal infusion; improved control of PD and dyskinesia.
Data set [2] concerns the target TH (Rattus norvegicus, UniProt P04177).
Data set [3] relates to TH.
A further data set addresses THΔ32 (Rattus norvegicus, UniProt P04177).
In the next data set the target is THΔ68 (Rattus norvegicus, UniProt P04177).
THΔ68, sequence (P04177 69-498 limits assumed, stated change not applied): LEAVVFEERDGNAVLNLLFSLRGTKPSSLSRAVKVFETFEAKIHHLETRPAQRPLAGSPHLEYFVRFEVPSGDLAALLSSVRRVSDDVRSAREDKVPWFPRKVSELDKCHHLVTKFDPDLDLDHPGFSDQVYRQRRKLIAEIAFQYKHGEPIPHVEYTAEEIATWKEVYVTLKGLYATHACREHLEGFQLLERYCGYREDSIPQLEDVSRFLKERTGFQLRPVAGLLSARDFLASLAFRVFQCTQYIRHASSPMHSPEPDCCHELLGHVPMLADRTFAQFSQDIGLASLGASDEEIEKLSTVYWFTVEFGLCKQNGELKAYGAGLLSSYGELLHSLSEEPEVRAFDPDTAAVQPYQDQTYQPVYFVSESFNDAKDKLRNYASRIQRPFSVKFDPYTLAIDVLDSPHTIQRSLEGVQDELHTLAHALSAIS
Setting [4] is: preincubation with stoichiometric amounts of dopamine.

TH (Rattus norvegicus, UniProt P04177), sequence (P04177 whole entry): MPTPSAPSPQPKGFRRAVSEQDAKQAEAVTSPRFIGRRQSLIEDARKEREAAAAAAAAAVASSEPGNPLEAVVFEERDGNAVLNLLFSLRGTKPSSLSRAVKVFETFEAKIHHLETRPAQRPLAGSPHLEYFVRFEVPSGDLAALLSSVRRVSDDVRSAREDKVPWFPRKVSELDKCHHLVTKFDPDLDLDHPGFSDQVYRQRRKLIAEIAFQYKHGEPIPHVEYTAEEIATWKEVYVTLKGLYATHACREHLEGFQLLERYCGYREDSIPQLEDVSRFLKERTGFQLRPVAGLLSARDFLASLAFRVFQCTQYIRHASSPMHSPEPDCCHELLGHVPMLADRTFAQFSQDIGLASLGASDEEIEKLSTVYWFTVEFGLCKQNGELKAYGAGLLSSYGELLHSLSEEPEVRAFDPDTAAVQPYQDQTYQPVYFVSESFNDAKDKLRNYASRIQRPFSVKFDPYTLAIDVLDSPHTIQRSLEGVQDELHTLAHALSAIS
THΔ32, sequence (P04177 33-498 limits assumed, stated change not applied): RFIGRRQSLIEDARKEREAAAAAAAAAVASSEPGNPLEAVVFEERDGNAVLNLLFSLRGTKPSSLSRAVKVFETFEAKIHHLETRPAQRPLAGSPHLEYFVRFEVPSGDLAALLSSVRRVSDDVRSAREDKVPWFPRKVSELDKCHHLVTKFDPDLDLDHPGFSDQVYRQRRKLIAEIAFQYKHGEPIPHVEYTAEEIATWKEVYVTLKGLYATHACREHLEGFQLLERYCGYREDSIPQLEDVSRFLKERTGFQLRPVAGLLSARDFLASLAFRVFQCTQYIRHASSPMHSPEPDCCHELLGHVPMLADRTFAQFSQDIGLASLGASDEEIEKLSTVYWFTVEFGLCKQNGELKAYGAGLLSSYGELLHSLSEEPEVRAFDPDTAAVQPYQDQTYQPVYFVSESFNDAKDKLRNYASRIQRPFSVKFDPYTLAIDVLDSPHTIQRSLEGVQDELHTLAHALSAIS

As to `N[C@@H](Cc1ccc(O)c(O)c1)C(=O)O` [L-DOPA, L-3,4-dihydroxyphenylalanine], the “therapeutic range for plasma L-DOPA” value was 0.2 to 1.5 mg/L.

On to `COC(=O)[C@@H](N)Cc1ccc(O)c(O)c1` [levodopa methyl ester], for which the “plasma levels of Levodopa” value in data set [1] was 3000 to 4000 ng/mL.

Turning to `NCCc1ccc(O)c(O)c1` [dopamine], at TH [2] (relative to DOPA), the “binds more tightly than DOPA” value was 1000 fold. Also, the “decrease of DA affinity for TH when the enzyme is phosphorylated” value on TH [2] (ser40 phosphorylation) is 300 fold. For the same molecule, the figures for the “increase of TH activity on dissociation of dopamine from the low-affinity site” value in the data set on TH [3] (Ser40-phosphorylated enzyme) and with TH [3] (non-phosphorylated enzyme) were 9 fold and 12 fold, respectively. Further, at TH [3] (read-out: K(D), second low affinity dopamine-binding site, present in non-phosphorylated and Ser40-phosphorylated forms), the pKd was 7.05. Also, the “dopamine release from the enzyme” value was “not released” on THΔ32 and “rapidly released” at THΔ68. The figures for the inhibition by dopamine on THΔ32 (setting [4]) and at THΔ68 (setting [4]) were 90% and “not inhibited”, respectively.

For the molecule `O=C(O)Cc1ccc(O)c(O)c1` [dihydroxyphenylacetate], the “binds less tightly than DOPA” value on TH [2] (relative to DOPA) is recorded as 100 fold.
